This is an account of results in paper PMC4461042 (Structure (London, England : 1993), 2015).

The target of data set [1] is T1, α3β2 nAChR (Homo sapiens, UniProt P17787+P32297). Conditions: cited from earlier work.
For data set [2], the target named is L-AChBP (Lymnaea stagnalis, UniProt P58154). The data set is classed as binding.
The target of data set [3] is A-AChBP (Aplysia californica, UniProt Q8WSF8). The data set is classed as binding. The following applies: for Kd: read-out: Kd/calc.
The subject of data set [4] is muscle-type α1_2βγδ nAChR. Conditions: read-out: IC50, inhibition of ACh-evoked nicotinic currents; cited from earlier work.
Data set [5] deals with T2, human neuronal α7 nAChR (Homo sapiens, UniProt P36544). Conditions: read-out: IC50, inhibition of ACh-evoked nicotinic currents; cited from earlier work.
T2 sequence (P36544 23-502): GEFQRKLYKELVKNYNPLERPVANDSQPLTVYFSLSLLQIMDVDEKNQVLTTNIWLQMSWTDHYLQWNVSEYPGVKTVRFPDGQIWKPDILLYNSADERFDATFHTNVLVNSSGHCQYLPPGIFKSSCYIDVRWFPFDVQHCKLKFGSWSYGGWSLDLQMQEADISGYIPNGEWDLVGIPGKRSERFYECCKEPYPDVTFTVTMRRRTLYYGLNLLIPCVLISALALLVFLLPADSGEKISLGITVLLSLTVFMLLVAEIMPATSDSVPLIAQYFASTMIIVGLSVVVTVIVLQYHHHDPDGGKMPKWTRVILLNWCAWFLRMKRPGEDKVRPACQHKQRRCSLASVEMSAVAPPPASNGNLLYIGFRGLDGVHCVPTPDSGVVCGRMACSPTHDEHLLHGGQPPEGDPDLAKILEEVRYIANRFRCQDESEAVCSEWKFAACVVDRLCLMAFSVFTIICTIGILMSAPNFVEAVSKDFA
Data set [6] deals with T3, human neuronal α4β2 nAChR (Homo sapiens, UniProt P17787+P43681). Conditions: read-out: IC50, inhibition of ACh-evoked nicotinic currents; cited from earlier work.
T3 sequence (P43681 29-627): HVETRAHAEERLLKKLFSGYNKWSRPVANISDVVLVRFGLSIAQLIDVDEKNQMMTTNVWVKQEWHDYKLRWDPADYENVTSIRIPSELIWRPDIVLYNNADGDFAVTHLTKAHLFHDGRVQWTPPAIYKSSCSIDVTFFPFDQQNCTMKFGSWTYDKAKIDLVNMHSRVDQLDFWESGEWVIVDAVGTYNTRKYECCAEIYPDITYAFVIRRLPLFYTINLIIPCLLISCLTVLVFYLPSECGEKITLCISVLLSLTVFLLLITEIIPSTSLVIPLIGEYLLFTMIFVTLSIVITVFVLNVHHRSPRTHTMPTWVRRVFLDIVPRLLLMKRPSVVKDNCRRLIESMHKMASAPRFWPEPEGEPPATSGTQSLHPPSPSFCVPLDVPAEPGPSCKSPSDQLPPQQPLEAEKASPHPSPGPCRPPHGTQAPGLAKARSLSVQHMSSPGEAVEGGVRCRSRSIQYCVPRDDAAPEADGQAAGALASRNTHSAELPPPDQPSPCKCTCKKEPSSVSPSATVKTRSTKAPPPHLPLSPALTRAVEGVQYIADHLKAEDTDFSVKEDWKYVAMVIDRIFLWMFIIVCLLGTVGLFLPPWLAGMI
T3 sequence (P17787 26-502): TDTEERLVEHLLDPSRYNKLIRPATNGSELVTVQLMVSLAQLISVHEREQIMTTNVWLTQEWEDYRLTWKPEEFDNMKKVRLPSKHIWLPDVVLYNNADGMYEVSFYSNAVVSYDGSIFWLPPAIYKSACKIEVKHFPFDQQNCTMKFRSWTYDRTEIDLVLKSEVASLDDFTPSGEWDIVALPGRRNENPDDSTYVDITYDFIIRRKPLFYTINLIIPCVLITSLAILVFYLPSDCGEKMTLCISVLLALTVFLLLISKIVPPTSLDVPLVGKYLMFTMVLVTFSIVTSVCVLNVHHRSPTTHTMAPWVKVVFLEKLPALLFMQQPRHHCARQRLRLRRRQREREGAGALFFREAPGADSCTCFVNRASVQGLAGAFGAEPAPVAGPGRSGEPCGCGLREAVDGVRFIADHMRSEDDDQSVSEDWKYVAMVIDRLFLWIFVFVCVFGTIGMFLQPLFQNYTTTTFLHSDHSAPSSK
In data set [7] the target is full-length α4β2 nAChR (Homo sapiens, UniProt P17787+P43681). Type of data set: binding.
Sequence of full-length α4β2 nAChR (P17787 26-502): as above
Sequence of full-length α4β2 nAChR (P43681 29-627): as the sequence (P43681 29-627) above
Data set [8] deals with T4, α4β2 nAChR (Homo sapiens, UniProt P17787+P43681). The following applies: cited from earlier work.
T4 sequence (P43681 29-627): as above
T4 sequence (P17787 26-502): as the sequence (P17787 26-502) above
Data set [9] has as its target T2, human neuronal α7 nAChR. Type of data set: cell-based.
For data set [10], the target named is full-length α7 nAChR (Homo sapiens, UniProt P36544). Type of data set: binding.
Sequence of full-length α7 nAChR (P36544 23-502): as the sequence (P36544 23-502) above
The subject of data set [11] is mice. The following applies: in vivo; cited from earlier work.
Data set [12] concerns the target T1, α3β2 nAChR. The data set is classed as binding.
For data set [13], the target named is A-AChBP/α7 chimera III. The data set is classed as binding. Conditions: read-out: Kd/equ.
The subject of data set [14] is muscle-type α1_2βγδ nAChR. Type of data set: cell-based, Torpedo. Conditions: read-out: IC50, inhibition of ACh-evoked nicotinic currents.
For data set [15], the target named is T3, human neuronal α4β2 nAChR. Type of data set: cell-based. Conditions: read-out: IC50, inhibition of ACh-evoked nicotinic currents.
The target in data set [16] is T4, α4β2 nAChR. Type of data set: binding.
Setting [17] is: read-out: Kd/equ, competitive component.
Setting [18] is: read-out: Kd/equ, non-competitive component.

Like-named read-outs stand apart in the source and are kept apart here.

Sequence of A-AChBP (Q8WSF8 18-236 limits assumed): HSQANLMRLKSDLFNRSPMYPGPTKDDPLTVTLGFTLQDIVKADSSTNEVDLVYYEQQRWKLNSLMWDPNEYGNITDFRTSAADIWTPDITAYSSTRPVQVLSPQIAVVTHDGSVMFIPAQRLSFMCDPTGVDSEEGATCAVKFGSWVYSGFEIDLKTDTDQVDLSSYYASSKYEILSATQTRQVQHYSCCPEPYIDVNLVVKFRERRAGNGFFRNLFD
Sequence of L-AChBP (P58154 20-229 limits assumed): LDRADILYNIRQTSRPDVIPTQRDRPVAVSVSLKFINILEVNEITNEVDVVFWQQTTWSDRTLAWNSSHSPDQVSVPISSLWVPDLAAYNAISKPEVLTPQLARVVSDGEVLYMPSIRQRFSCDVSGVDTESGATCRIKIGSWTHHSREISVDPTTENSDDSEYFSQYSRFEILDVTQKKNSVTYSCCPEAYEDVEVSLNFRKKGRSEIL
T1 sequence (P17787 26-502): as the sequence (P17787 26-502) above
T1 sequence (P32297 32-505): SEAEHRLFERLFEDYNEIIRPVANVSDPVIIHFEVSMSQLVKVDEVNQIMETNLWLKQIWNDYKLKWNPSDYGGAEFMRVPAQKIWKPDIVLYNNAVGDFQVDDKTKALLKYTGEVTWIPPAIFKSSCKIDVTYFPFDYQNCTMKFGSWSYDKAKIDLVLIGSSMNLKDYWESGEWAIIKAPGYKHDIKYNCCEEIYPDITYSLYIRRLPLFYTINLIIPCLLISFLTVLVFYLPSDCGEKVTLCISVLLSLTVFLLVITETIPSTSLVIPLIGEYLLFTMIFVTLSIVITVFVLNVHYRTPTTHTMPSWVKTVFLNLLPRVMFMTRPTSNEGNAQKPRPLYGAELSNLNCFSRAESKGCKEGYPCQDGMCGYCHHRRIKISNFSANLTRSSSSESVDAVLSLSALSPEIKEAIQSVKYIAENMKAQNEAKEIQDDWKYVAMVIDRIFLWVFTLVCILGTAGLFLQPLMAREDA

As a reminder, the Ki is a dissociation constant, usually derived from enzyme kinetics or from competition with a known ligand. Usually IC50 stands for the concentration that gives 50% inhibition. `C=C1CCCC2=NC[C@H](C)[C@@H](C)C[C@@]23CCC(C(=O)O)=C[C@@H]3[C@@H]2O[C@]3(C[C@H]4CCC[C@@]5(CC[C@@]6(O[C@@H](CC[C@@]6(C)O)C1)O5)O4)C[C@@H](C)[C@@H](O)[C@H]2O3` [PnTx-A, pinnatoxin-A]: the Ki is 9.4 ± 1.9 nM in data set [1] and 15.6 ± 5.2 nM in [8]. In addition, the koff was 31.6 ± 7.9 ^a min^−1 in data set [2] and < 0.06 ^b min^−1 in data set [3]. Besides, the kon is listed as 0.21 ± 0.09 ^a 10^9 M^−1min^−1 in data set [2] and 1.4 ± 0.7 ^a 10^9 M^−1min^−1 in data set [3]. Further, the Kd in data set [2] (read-out: Kd/calc) is 170 ± 77 nM; in data set [3], less than 0.05 nM; in [7] (setting [17]), 95 ± 11 nM; in data set [7] (setting [18]) it was 199 ± 1 nM; in [10] (setting [17]), 0.18 ± 0.1 nM; in [10] (setting [18]) it was 2.6 ± 1.3 nM. The IC50 was 5.53 nM in data set [4], 0.107 nM in [5] and 30.4 nM in [6]. Also, the “greater potency (IC50) toward α7 than α4β2” value in data set [9] was ~ 300 fold.

Consider `C=C1CCCC2=NC[C@H](C)[C@@H](C)C[C@@]23CCC(C(=O)O)=C[C@@H]3[C@@H]2O[C@]3(C[C@H]4CCC[C@@]5(CC[C@@]6(O[C@@H](CC[C@@]6(C)O)C1)O5)O4)C[C@@H](C)[C@@H](O)[C@H]2O3` [(−)-PnTx-A], for which the “activity in mouse assays” value in [11] is “inactive”.

As to `C=CC1=C[C@@H]2[C@@H]3O[C@]4(C[C@H]5CCC[C@@]6(CC[C@@]7(O[C@@H](CC[C@@]7(C)O)CC(=C)CCCC7=NC[C@H](C)[C@@H](C)C[C@@]72CC1)O6)O5)C[C@@H](C)[C@@H](O)[C@H]3O4` [PnTx-G, pinnatoxin-G], the values for the Ki in data set [12] and in data set [16] were 63.9 ± 1.2 nM and 101 ± 30 nM, respectively. Further, the Kd is 174 ± 19 nM in data set [13]; 360 ± 210 nM in [2] (read-out: Kd/calc); 315 nM in data set [2] (read-out: Kd/equ); 0.86 ± 0.09 nM in data set [3]; 99 ± 50 nM in data set [7] (setting [17]); 87 ± 62 nM in data set [7] (setting [18]). For the same compound, the results for the Kd in [10] (setting [17]) and in data set [10] (setting [18]) were 34 ± 4 nM and 270 ± 50 nM, respectively. The koff is 60 ± 30 ^b min^−1 in data set [2] and 0.78 ± 0.06 ^b min^−1 in [3]. The kon is recorded as 0.17 ± 0.01 ^b 10^9 M^−1min^−1 in [2] and 0.91 ± 0.03 ^b 10^9 M^−1min^−1 in [3]. Besides, the IC50 in [5] is 5.06 nM; in [14], 3.82 nM; in [15] it was 4.9 nM. Moreover, the “lower potency towards α7 compared with PnTx-A” value in [9] is ~ 50 fold.
